“And” between values parts separate entries of the source, which are not always exact repeats. Equal values may be shown once.
Key:
Rat Hippocampal Cultures = experiment: Cell Titer Glow/Cell Viability in vitro assay, rat hippocampal cultures, insult with 150 μM H2O2; type: cell-based; details: for Cell viability (Cell Titer Glow), single plate / Cell viability (Cell Titer Glow), Mean: rat hippocampal cultures, 150 μM H2O2 insult; for Cell viability (Cell Titer Glow), single plate: individual plates (each in triplicate), vehicle 0.5-0.6; for Cell viability (Cell Titer Glow), Mean: mean of 3 plates (n=9), vehicle mean 0.5
Description: (§1) Cell Titer Glow/Cell Viability In Vitro Assay
(§2) The assay was run according to the procedure listed within the insert of the kit purchased from Promega (see attachment at the end of the application).
(§3) Cell Cultures were prepared as follows. Dissociated hippocampal and cortical cell cultures were established from embryonic day 18 rat fetuses. The fetuses were removed via cesarean section from pregnant dams (Harlan Sprague-Dawley) anesthetized with halothane according to the AVMA Panel on Euthanasia. Pups were decapitated and the brains were removed and placed in Hank's Balanced Salt solution (1×HBSS; Gibco, Rockville, Md.). The hippocampi and cortices were dissected out and pooled according to tissue-type. Tissue was trypsinized for 15 min (1 mg/ml trypsin-HBSS; Worthington, Lakewood, N.J.), rinsed with fresh HBSS, incubated in trypsin inhibitor (1 mg/ml; Sigma, St. Louis, Mo.) for 5 min, rinsed again with fresh HBSS and then triturated in 1 ml fresh HBSS with a fire-polished glass pipette. Dissociated cells were seeded at 10,000 cells/well onto poly-D-lysine coated 96-well plates (BD BioScience, Bedford, Ma.) containing 100 ul/well Eagle's Minimal Essential Media (MEM; Gibco) supplemented with 26 mM NaHCO3 (Sigma), 40 mM glucose (Sigma), 20 mM KCl (Sigma), 1 mM sodium pyruvate (Sigma), 10% (v/v) heat-inactivated fetal bovine serum (Hyclone, Logan, Utah), and 0.001% gentamicin sulfate (Sigma) (pH 7.4). Serum-free cultures were plated and maintained in Neurobasal medium+B27 supplement (Gibco). Cells were allowed to attach for 24 h in a humidified 37° C. 5% CO2 incubator before experimental treatment.
(§4) Test compounds were prepared as follows: A 10 mM stock in DMSO of each compound was diluted 1:50 in DPBS rendering a final stock of 200 μM. […] Equal amounts of vehicle or diluted compound were added to each culture well.
(§5) A 30% stock solution of hydrogen peroxide (H2O2; Sigma) was diluted with DPBS 1:100 to yield a […] stock. Five microliters of vehicle or H2O2 stock solution was added to each 100 ul culture well to yield a final concentration of 150 uM.
(§6) Note that in the data listed below, each plate was run in triplicate for a total of n=9.

[1] = tested on: Rat Cerebral Cortical Cultures; experiment: Cell Titer Glow/Cell Viability in vitro assay, rat cerebral cortical cultures, insult with 150 μM H2O2; type: cell-based; details: 150 μM H2O2 insult; for Cell viability (Cell Titer Glow), single plate: individual plates (each in triplicate), vehicle 0.8-1.2; for Cell viability (Cell Titer Glow), Mean: mean of 3 plates (n=9)
Description: as §1, §2, §3, §4, §5, §6

| Structure (SMILES) | melting point [°C] | Cell viability (Cell Titer Glow), single plate (Rat Hippocampal Cultures; compound 0.1 μM) | Cell viability (Cell Titer Glow), Mean (Rat Hippocampal Cultures; compound 0.1 μM, SD 1, **p < 0.01) | Cell viability (Cell Titer Glow), single plate (Rat Hippocampal Cultures; compound 1 μM) | Cell viability (Cell Titer Glow), Mean (Rat Hippocampal Cultures; compound 1 μM, SD 0.6) | Cell viability (Cell Titer Glow), single plate (Rat Hippocampal Cultures; compound 10 μM) | Cell viability (Cell Titer Glow), Mean (Rat Hippocampal Cultures; compound 10 μM, SD 3) | Protection of neurons from death and/or damage from oxidative stress or oxidative injury (Rat Hippocampal Cultures; summary in words of Tables 4 and 5 (rat hippocampal and cerebral cortical cultures, 150 μM H2O2)) | Cell viability (Cell Titer Glow), single plate ([1]; compound 0.1 μM) | Cell viability (Cell Titer Glow), Mean ([1]; compound 0.1 μM, SD 35, vehicle mean 1, *p < 0.05) | Cell viability (Cell Titer Glow), single plate ([1]; compound 1 μM) | Cell viability (Cell Titer Glow), Mean ([1]; compound 1 μM, SD 16, vehicle mean 1) | Cell viability (Cell Titer Glow), single plate ([1]; compound 10 μM) | Cell viability (Cell Titer Glow), Mean ([1]; compound 10 μM, SD 22, vehicle mean 1) |
| --- | --- | --- | --- | --- | --- | --- | --- | --- | --- | --- | --- | --- | --- | --- |
| NS(=O)(=O)NCC1CCc2ccccc2O1 (centres unmarked) [Compound #10, Chroman-2-ylmethylsulfamide] | 100 to 101 |  |  |  |  |  |  |  |  |  |  |  |  |  |
| NS(=O)(=O)NC[C@H]1COc2cc(Cl)ccc2O1 [Compound #8, (2S)-(−)-N-(6-Chloro-2,3-dihydro-benzo[1,4]dioxin-2-ylmethyl)-sulfamide] |  | 24 (2×) and 26 | 25** | 16 and 17 (2×) | 17 | 10 and 14 and 15 | 13 | effective at protecting neurons from death and/or damage from oxidative stress or oxidative injury | 28 and 64 and 97 | 63* | 19 and 51 and 38 | 36 | 10 and 18 and 51 | 26 |

— patent US20070155823A1, “USE OF BENZO-FUSED HETEROCYCLE SULFAMIDE DERIVATIVES AS NEUROPROTECTIVE AGENTS” (priority 2005, published 2007)
